{
  "source": "paper PMC9440176",
  "about": "“Novel benzylidene benzofuranone analogues as potential anticancer agents: design, synthesis and in vitro evaluation based on CDK2 inhibition assays” (3 Biotech, 2022)",
  "data": [
    {"tested_on": "not listed separately", "assay": "ABTS.+ radical scavenging assay", "details": "not given", "method": "The assay was performed in a 96-well plate by serial dilution method. A 2 mM ABTS^.+ working solution was prepared in a phosphate buffer (Zheleva-Dimitrova et al [2010]).To this, 200 μL of aqueous potassium per sulfate (70 mM) solution was added and the solution was incubated for 24 h in the dark at room temperature to develop a blue-green color. To 30 μL of ABTS^.+ working solution, 50 μL of different concentrations (3.9–1000 μM) of the test sample solution and 170 μL of phosphate buffer (pH-7.4) were added in a well. The plate was then incubated in the dark at room temperature for 10 min. Then absorbance was measured at 690 nm using Elisa reader. Quercetin and ascorbic acid were used as standards. The percentage scavenging of ABTS^.+ was calculated using the formula, (Control Absorbance–Test Absorbance)*100/(Control Absorbance) and the anti-oxidant activity was expressed in terms of IC50 value.", "units": {"IC50": "µM"}, "values": [
      {"compound": "CCN1CC=C(c2c(OC)cc(OC)c3c2O/C(=C\\c2ccc(OC)c(OC)c2)C3=O)CC1", "note": "[NEA5]", "IC50": "> 1000"},
      {"compound": "CCN1CC=C(c2c(OC)cc(OC)c3c2O/C(=C\\c2ccc(Cl)cc2)C3=O)CC1", "note": "[NEA6]", "IC50": "198.18 ± 0.08"},
      {"compound": "COc1cc(OC)c(C2=CCN(C(C)C)CC2)c2c1C(=O)/C(=C/c1ccc3ccccc3c1)O2", "note": "[NISOA1]", "IC50": "112 ± 5.45"},
      {"compound": "COc1cc(OC)c(C2=CCN(C(C)C)CC2)c2c1C(=O)/C(=C/c1ccccc1Br)O2", "note": "[NISOA2]", "IC50": "234 ± 8.45"},
      {"compound": "COc1cc(OC)c(C2=CCN(C(C)C)CC2)c2c1C(=O)/C(=C/c1ccccc1C)O2", "note": "[NISOA3]", "IC50": "187 ± 8.03"},
      {"compound": "COc1ccc(/C=C2\\Oc3c(c(OC)cc(OC)c3C3=CCN(C(C)C)CC3)C2=O)cc1", "note": "[NISOA5]", "IC50": "109 ± 9.23"}
    ]},
    {"biological_target": "CDK2/Cyclin A (Homo sapiens, UniProt P24941)", "assay": "CDK2/cyclin A inhibitory assay, Z'-LYTE FRET kinase assay", "type": "biochemical", "details": "concentration of 100 micro molar; 1000 ng/ml kinase, 1000 µM ATP", "excerpt": "Z’-LYTE® technology involves homogeneous assay design based on FRET and is a universal platform for both screening as well as profiling protein kinases. The assay uses a peptide substrate labeled with two different fluorophores, coumarin donor and fluorescein acceptor on each end. These two fluorophores make up a FRET pair, which allows the transfer of energy when both are present on the same molecule. The initial kinase reaction transfers the ϒ-phosphate of ATP to a tyrosine or serine/threonine residue on the substrate. In a secondary reaction, referred to as the development reaction, a site-specific protease recognizes and cleaves only non-phosphorylated peptide, while phosphorylated substrate remains uncleaved. […] Upon excitation of Coumarin at 400 nm, the FRET signal is measured as a ratio between the Coumarin donor emission at 445–460 nm and the fluorescein acceptor emission at 520–535 nm(Lebakken et al. [2007]).\nInitial ten-fold and two-fold dilutions of Kinase and ATP concentrations were used to choose the optimal Kinase and ATP concentration based on the % Phosphorylation.\nThe assay was carried out according to the kit instructions (384 well format). Briefly, 5X kinase buffer [250 mM HEPES (pH 7.5), 50 mM MgCl2, 5 mM EGTA, 0.05% BRIJ-35] was diluted to 1X using distilled water. The phosphor peptide positive control (Z’-LYTE® Tyr 4 phospho-peptide) and the non-phosphorylated negative control (Z’-LYTE® Tyr 4 peptide) were then diluted to 1:500 with 1× kinase buffer to 2 μM. […] Working development solution was then made by diluting 12 μL of the provided stock solution with 388 μL of the provided development buffer. Aliquots (20 μL) of each peptide mixture were then added to the wells of a Corning 3914 solid white microplate in replicates of 8. The development reaction was initiated by the addition of 10 μL of working development-solution to all the wells. Further, the plates were allowed to incubate at room temperature for 60 min. Reactions were then stopped by the addition of 10 μL of stop solution (Jia et al. [2008]).\nReactions were quantitated using a Tecan Robotic Microplate Reader. Reader control, blank subtraction, ratio metric calculations and finally graph plotting were carried out using Gen5™ Data Analysis Software.\nThe CDK2/Cyclin A assay was carried out as per the manufacturer’s instruction using suitable controls and standard.\nThe inhibitory assay was carried out using the stock of 10 mM in DMSO. Samples were further serially diluted to obtain concentrations of 100 μM. The concentrations were chosen based on the IC50 values obtained in the MTT assay. A total of 23 analogues were selected for the assay based on their antiproliferative activity. Further, selected compounds were screened and tested against the target CDK2/Cyclin A, and their % phosphorylation and % inhibition were recorded.", "units": {"% inhibition on CDK2/cyclin A": "%"}, "values": [
      {"compound": "CCN1CC=C(c2c(OC)cc(OC)c3c2O/C(=C\\c2ccc(OC)c(OC)c2)C3=O)CC1", "note": "[NEA5]", "% inhibition on CDK2/cyclin A": 26.007},
      {"compound": "CCN1CC=C(c2c(OC)cc(OC)c3c2O/C(=C\\c2ccc(Cl)cc2)C3=O)CC1", "note": "[NEA6]", "% inhibition on CDK2/cyclin A": 25.879},
      {"compound": "COc1cc(OC)c(C2=CCN(C(C)C)CC2)c2c1C(=O)/C(=C/c1ccc3ccccc3c1)O2", "note": "[NISOA1]", "% inhibition on CDK2/cyclin A": 38.987},
      {"compound": "COc1cc(OC)c(C2=CCN(C(C)C)CC2)c2c1C(=O)/C(=C/c1ccccc1Br)O2", "note": "[NISOA2]", "% inhibition on CDK2/cyclin A": 39.811},
      {"compound": "COc1cc(OC)c(C2=CCN(C(C)C)CC2)c2c1C(=O)/C(=C/c1ccccc1C)O2", "note": "[NISOA3]", "% inhibition on CDK2/cyclin A": 43.654},
      {"compound": "COc1ccc(/C=C2\\Oc3c(c(OC)cc(OC)c3C3=CCN(C(C)C)CC3)C2=O)cc1", "note": "[NISOA5]", "% inhibition on CDK2/cyclin A": 39.054}
    ]},
    {"tested_on": "normal epithelial kidney cells (Vero)", "assay": "MTT cytotoxicity assay on Vero", "type": "cell-based", "details": "24 h, read-out: Inhibition of cell proliferation, IC50, Vero", "method": "(§1) The monolayer cell culture was trypsinized and the cell count was adjusted to 5.0 × 10^5 cells/ml using respective media containing 10% FBS. To each well of the 96-well microtiter plate, 100 µL of the diluted cell suspension (50,000cells/well) was added. After 24 h, when a partial monolayer was formed, the supernatant was flicked off, the monolayer was then washed once again with the medium and 100 µL of different test concentrations of test drugs were added on to the partial monolayer in microtiter plates. The plates were then incubated at 37 °C for 24 h in 5% CO2 atmosphere. After incubation, the test solutions in the wells were discarded and 100 µL of MTT (5 mg/10 ml of MTT in PBS) was added to each well. The plates were then incubated for 4 h at 37 °C in 5% CO2 atmosphere. The supernatant was then removed and 100 µL of DMSO was added and the plates were gently shaken to solubilize the formed formazan. The absorbance was measured using a microtiter plate reader at a wavelength of 590 nm. The percentage growth inhibition was thus calculated using the following formula and the concentration of the test drug required to inhibit the cell growth by 50% (IC50) values is generated from the dose–response curves for each one of the cell lines (Meerloo et al. [2011]).\n(§2) The test compounds were screened for their in vitro cytotoxicity by MTT assay against two cancer cell lines, namely MCF-7, HCT-116 and normal epithelial kidney cells (Vero). Doxorubicin was used as a reference standard.", "units": {"IC50": "µM"}, "values": [
      {"compound": "CCN1CC=C(c2c(OC)cc(OC)c3c2O/C(=C\\c2ccc(OC)c(OC)c2)C3=O)CC1", "note": "[NEA5]", "IC50": 177},
      {"compound": "CCN1CC=C(c2c(OC)cc(OC)c3c2O/C(=C\\c2ccc(Cl)cc2)C3=O)CC1", "note": "[NEA6]", "IC50": 192},
      {"compound": "COc1cc(OC)c(C2=CCN(C(C)C)CC2)c2c1C(=O)/C(=C/c1ccc3ccccc3c1)O2", "note": "[NISOA1]", "IC50": 172},
      {"compound": "COc1cc(OC)c(C2=CCN(C(C)C)CC2)c2c1C(=O)/C(=C/c1ccccc1Br)O2", "note": "[NISOA2]", "IC50": "> 200"},
      {"compound": "COc1cc(OC)c(C2=CCN(C(C)C)CC2)c2c1C(=O)/C(=C/c1ccccc1C)O2", "note": "[NISOA3]", "IC50": "> 200"},
      {"compound": "COc1ccc(/C=C2\\Oc3c(c(OC)cc(OC)c3C3=CCN(C(C)C)CC3)C2=O)cc1", "note": "[NISOA5]", "IC50": 167}
    ]},
    {"tested_on": "MCF-7", "assay": "MTT cytotoxicity assay on MCF-7", "type": "cell-based", "details": "24 h, read-out: Inhibition of cell proliferation, IC50, MCF-7", "method": "as §1, §2", "units": {"IC50": "µM"}, "values": [
      {"compound": "CCN1CC=C(c2c(OC)cc(OC)c3c2O/C(=C\\c2ccc(OC)c(OC)c2)C3=O)CC1", "note": "[NEA5]", "IC50": 135},
      {"compound": "CCN1CC=C(c2c(OC)cc(OC)c3c2O/C(=C\\c2ccc(Cl)cc2)C3=O)CC1", "note": "[NEA6]", "IC50": 95.4},
      {"compound": "COc1cc(OC)c(C2=CCN(C(C)C)CC2)c2c1C(=O)/C(=C/c1ccc3ccccc3c1)O2", "note": "[NISOA1]", "IC50": 46.8},
      {"compound": "COc1cc(OC)c(C2=CCN(C(C)C)CC2)c2c1C(=O)/C(=C/c1ccccc1Br)O2", "note": "[NISOA2]", "IC50": 103},
      {"compound": "COc1cc(OC)c(C2=CCN(C(C)C)CC2)c2c1C(=O)/C(=C/c1ccccc1C)O2", "note": "[NISOA3]", "IC50": 70.4},
      {"compound": "COc1ccc(/C=C2\\Oc3c(c(OC)cc(OC)c3C3=CCN(C(C)C)CC3)C2=O)cc1", "note": "[NISOA5]", "IC50": 39.6}
    ]},
    {"tested_on": "HCT 116", "assay": "MTT cytotoxicity assay on HCT 116", "type": "cell-based, Human", "details": "24 h, read-out: Inhibition of cell proliferation, IC50, HCT 116", "method": "as §1, §2", "units": {"IC50": "µM"}, "values": [
      {"compound": "CCN1CC=C(c2c(OC)cc(OC)c3c2O/C(=C\\c2ccc(OC)c(OC)c2)C3=O)CC1", "note": "[NEA5]", "IC50": 175},
      {"compound": "CCN1CC=C(c2c(OC)cc(OC)c3c2O/C(=C\\c2ccc(Cl)cc2)C3=O)CC1", "note": "[NEA6]", "IC50": 124},
      {"compound": "COc1cc(OC)c(C2=CCN(C(C)C)CC2)c2c1C(=O)/C(=C/c1ccc3ccccc3c1)O2", "note": "[NISOA1]", "IC50": 63.2},
      {"compound": "COc1cc(OC)c(C2=CCN(C(C)C)CC2)c2c1C(=O)/C(=C/c1ccccc1Br)O2", "note": "[NISOA2]", "IC50": 125},
      {"compound": "COc1cc(OC)c(C2=CCN(C(C)C)CC2)c2c1C(=O)/C(=C/c1ccccc1C)O2", "note": "[NISOA3]", "IC50": 89.5},
      {"compound": "COc1ccc(/C=C2\\Oc3c(c(OC)cc(OC)c3C3=CCN(C(C)C)CC3)C2=O)cc1", "note": "[NISOA5]", "IC50": 55.4}
    ]},
    {"tested_on": "not listed separately", "assay": "DPPH. free radical scavenging assay", "details": "not given", "method": "DPPH. assay was performed using 96-well plate by serial dilution method. The dilution of methanolic stock solution of the test compounds and standard anti-oxidants was carried out to obtain concentration in the range of 3.9–1000 µM. Quercetin and ascorbic acid were used as standards. To a 100 μL of this solution, 100 μL of 200 µM DPPH^. in methanolic solution was added. The experiment was done in triplicate and the plate was then incubated for 30 min in the dark and later the absorbance was measured at 517 nm using Elisa reader. The percentage DPPH^. Scavenging was calculated using the formula, (Control Absorbance–Test Absorbance)*100/(Control Absorbance). The anti-oxidant activity of the test compounds was expressed in terms of concentration required for 50 percentage inhibition (IC50) (Collins [2005]).", "units": {"IC50": "µM"}, "values": [
      {"compound": "CCN1CC=C(c2c(OC)cc(OC)c3c2O/C(=C\\c2ccc(OC)c(OC)c2)C3=O)CC1", "note": "[NEA5]", "IC50": "339 ± 9.65"},
      {"compound": "CCN1CC=C(c2c(OC)cc(OC)c3c2O/C(=C\\c2ccc(Cl)cc2)C3=O)CC1", "note": "[NEA6]", "IC50": "223 ± 4.87"},
      {"compound": "COc1cc(OC)c(C2=CCN(C(C)C)CC2)c2c1C(=O)/C(=C/c1ccc3ccccc3c1)O2", "note": "[NISOA1]", "IC50": "128 ± 17.9"},
      {"compound": "COc1cc(OC)c(C2=CCN(C(C)C)CC2)c2c1C(=O)/C(=C/c1ccccc1Br)O2", "note": "[NISOA2]", "IC50": "381 ± 28.1"},
      {"compound": "COc1cc(OC)c(C2=CCN(C(C)C)CC2)c2c1C(=O)/C(=C/c1ccccc1C)O2", "note": "[NISOA3]", "IC50": "284 ± 12.3"},
      {"compound": "COc1ccc(/C=C2\\Oc3c(c(OC)cc(OC)c3C3=CCN(C(C)C)CC3)C2=O)cc1", "note": "[NISOA5]", "IC50": "129 ± 6.78"}
    ]}
  ]
}
